Experimental data published in ChEMBL document CHEMBL4184232, “Novel (S)-1,3,4,12a-tetrahydropyrazino[2,1-c][1,4]benzodiazepine-6,12(2H,11H)-dione derivatives: Selective inhibition of MV-4-11 biphenotypic B myelomonocytic leukemia cells' growth is accompanied by reactive oxygen species overproduction and apoptosis” (Bioorg Med Chem Lett, 2018).
Activity calls are given as the source filed them. The rule behind the calls is not given here.

Experiments:
[1] = tested on: MV4-11; assay: Antiproliferative activity against human MV4-11 cells incubated for 72 hrs by SRB assay; format: functional, cell-based; conditions: MV4-11, 72 h
[2] = tested on: UMUC3; assay: Antiproliferative activity against human UM-UC-3 cells incubated for 72 hrs by SRB assay; format: functional, cell-based; conditions: UMUC3, 72 h
[3] = tested on: A549; assay: Antiproliferative activity against human A549 cells incubated for 72 hrs by SRB assay; format: functional, cell-based; conditions: A549, 72 h
[4] = tested on: HT-29; assay: Antiproliferative activity against human HT-29 cells incubated for 72 hrs by SRB assay; format: functional, cell-based; conditions: HT-29, 72 h
[5] = tested on: BALB/3T3; assay: Antiproliferative activity against mouse BALB/3T3 cells incubated for 72 hrs by SRB assay; format: cell-based; conditions: BALB/3T3, 72 h
[6] = tested on: MDA-MB-231; assay: Antiproliferative activity against human MDA-MB-231 cells incubated for 72 hrs by SRB assay; format: functional, cell-based; conditions: MDA-MB-231, 72 h
[7] = tested on: A2780; assay: Antiproliferative activity against human A2780 cells incubated for 72 hrs by SRB assay; format: functional, cell-based; conditions: A2780, 72 h
[8] = tested on: MCF7; assay: Antiproliferative activity against human MCF7 cells incubated for 72 hrs by SRB assay; format: functional, cell-based; conditions: MCF7, 72 h
[9] = tested on: LoVo; assay: Antiproliferative activity against human LoVo cells incubated for 72 hrs by SRB assay; format: functional, cell-based
[10] = tested on: UMUC3; assay: Induction of apoptosis in human UM-UC-3 cells assessed as increase in caspase-3/7 activity at 100 uM using Ac-DEVD-ACC substrate incubated for 24 hrs by fluorescence based assay; format: functional, cell-based
[11] = Ratio of induction of apoptosis in human UM-UC-3 cells assessed as increase in caspase-3/7 activity at 100 uM to induction of apoptosis in human MV4-11 cells assessed as increase in caspase-3/7 activity at 100 uM; format: functional
[12] = tested on: UMUC3; assay: Induction of cell cycle arrest in human UM-UC-3 cells assessed as accumulation at G0/G1 phase at 5 to 100 uM incubated for 24 hrs by propidium iodide staining based flow cytometry; format: functional
[13] = tested on: MV4-11; assay: Induction of cell cycle arrest in human MV4-11 cells assessed as increase in accumulation at G0/G1 phase at 100 uM incubated for 24 hrs by propidium iodide staining based flow cytometry; format: functional
[14] = tested on: MV4-11; assay: Induction of cell cycle arrest in human MV4-11 cells assessed as reduction in accumulation at S phase at 100 uM incubated for 24 hrs by propidium iodide staining based flow cytometry; format: functional
[15] = tested on: MV4-11; assay: Induction of cell cycle arrest in human MV4-11 cells assessed as reduction in accumulation at G2/M phase at 100 uM incubated for 24 hrs by propidium iodide staining based flow cytometry; format: functional
[16] = tested on: MV4-11; assay: Induction of oxidative stress in human MV4-11 cells assessed as increase in ROS production at 5 to 100 uM incubated for 6 hrs by DCF-DA and propidium iodide dye based flow cytometry; format: functional, cell-based
[17] = tested on: MV4-11; assay: Induction of apoptosis in human MV4-11 cells assessed as increase in caspase-3/7 activity using Ac-DEVD-ACC substrate incubated for 24 hrs by fluorescence based assay; format: functional, cell-based
[18] = tested on: MV4-11; assay: Induction of cell cycle arrest in human MV4-11 cells assessed as increase in accumulation at subG1 phase at 100 uM incubated for 24 hrs by propidium iodide staining based flow cytometry; format: functional
[19] = tested on: UMUC3; assay: Induction of cell cycle arrest in human UM-UC-3 cells assessed as accumulation at S phase at 5 to 100 uM incubated for 24 hrs by propidium iodide staining based flow cytometry; format: functional
[20] = tested on: UMUC3; assay: Induction of oxidative stress in human UM-UC-3 cells assessed as increase in ROS production at 5 to 100 uM incubated for 6 hrs by DCF-DA and propidium iodide dye based flow cytometry; format: functional, cell-based
[21] = tested on: UMUC3; assay: Induction of cell cycle arrest in human UM-UC-3 cells assessed as accumulation at G2/M phase at 5 to 100 uM incubated for 24 hrs by propidium iodide staining based flow cytometry; format: functional
[22] = tested on: P388; assay: Cytotoxicity against mouse P388 cells; format: functional
[23] = tested on: UMUC3; assay: Induction of apoptosis in human UM-UC-3 cells assessed as increase in caspase-3/7 activity at 5 to 100 uM using Ac-DEVD-ACC substrate incubated for 24 hrs by fluorescence based assay; format: functional, cell-based
[24] = tested on: MV4-11; assay: Induction of apoptosis in human MV4-11 cells at 5 to 100 uM incubated for 24 hrs by FITC-Annexin V staining based flow cytometry; format: functional, cell-based
[25] = tested on: UMUC3; assay: Induction of apoptosis in human UM-UC-3 cells at 5 to 100 uM incubated for 24 hrs by FITC-Annexin V staining based flow cytometry; format: functional, cell-based
[26] = tested on: Calf thymus DNA; assay: Binding affinity to calf thymus DNA assessed as increase in melting temperature incubated for 18 hrs by thermal denaturation study; format: nucleic-acid assay; conditions: Bos taurus

SMILES	IC50 [1] [µM]	IC50 [3] [µM]	IC50 [4] [µM]	IC50 [6] [µM]	IC50 [7] [µM]	IC50 [8] [µM]	IC50 [9] [µM]	IC50 [2] [µM]	IC50 [5] [µM]	other results
O=C1Nc2ccccc2C(=O)N2CCN(C(=O)c3ccc(Cl)cc3)C[C@@H]12	32.3	–	–	–	–	–	–	18.2	–	–
O=C(O)CN1C(=O)[C@@H]2CN(C(=O)c3ccc(-c4ccccc4)cc3)CCN2C(=O)c2ccccc21	7.6	3.2	17.8	7.8	19.6	7.6	27.6	3	15	–
O=C1Nc2ccc(Cl)cc2C(=O)N2CCN(C(=O)c3ccc(-c4ccccc4)cc3)C[C@@H]12	40.7	51	46.4	85.8	29.7	50.9	28.9	94.4	105	–
O=C1Nc2ccccc2C(=O)N2C=C(c3ccc(Br)cc3)C[C@@H]12	–	–	–	–	–	–	–	–	–	GI50 [22]: 0.51 µM
O=C1Nc2ccc(Br)cc2C(=O)N2CCN(C(=O)c3ccc(-c4ccccc4)cc3)C[C@@H]12	8.7	48.1	17.9	113	28.2	57	22.1	119	121	–
O=C1Nc2ccccc2C(=O)N2CCN(C(=O)c3ccc(Cl)cc3)C[C@H]12	36.7	–	–	–	–	–	–	22.3	–	–
COc1cc2c(cc1O)NC(=O)[C@@H]1C[C@@H](O)CN1C2=O	–	–	–	–	–	–	–	–	–	deltaTm [26]: 3.3 K
O=C(CN1C(=O)[C@@H]2CN(C(=O)c3ccc(-c4ccccc4)cc3)CCN2C(=O)c2ccccc21)OCc1ccccc1	44.2	34.1	40.1	30.3	28	147	23.1	96.8	31	–

Now from value to compound, other results behind:

IC50 [1] [µM]	IC50 [3] [µM]	IC50 [4] [µM]	IC50 [6] [µM]	IC50 [7] [µM]	IC50 [8] [µM]	IC50 [9] [µM]	SMILES	IC50 [2] [µM]	IC50 [5] [µM]	other results
27.1	–	–	–	–	–	–	O=C1Nc2ccccc2C(=O)N2CCN(C(=O)c3ccccc3)C[C@@H]12	10.5	–	–
39.8	–	–	–	–	–	–	O=C1Nc2ccccc2C(=O)N2CCN(C(=O)c3ccccc3I)C[C@H]12	13.3	–	–
44	–	–	–	–	–	–	O=C1Nc2ccccc2C(=O)N2CCN(C(=O)c3ccccc3I)C[C@@H]12	31.1	–	–
63.1	92	94.2	134	64.5	77.5	58.3	CN1C(=O)[C@@H]2CN(C(=O)c3ccc(-c4ccccc4)cc3)CCN2C(=O)c2ccccc21	103	37	–
17.5	96.1	154	141	35.8	47.3	55	O=C1Nc2ccccc2C(=O)N2CCN(C(=O)c3ccc(-c4ccccc4)cc3)C[C@@H]12	61.5	79.6	Activity [10]: Active; Ratio [11]: >2; Activity [12]: inactive; Activity [13]: Active; Activity [14]: Active; Activity [15]: Active; Activity [16]: Active; Activity [17]: Dose-dependent effect; Activity [18]: Active; Activity [19]: inactive; Activity [20]: Active; Activity [21]: inactive
10.8	106	144	41	62.8	35.8	11	O=C(c1ccc(-c2ccccc2)cc1)N1CCN2C(=O)c3ccccc3N(Cc3ccccc3)C(=O)[C@@H]2C1	136	136	Activity [12]: inactive; Activity [13]: Active; Activity [14]: Active; Activity [23]: inactive; Activity [15]: Active; Activity [24]: Active; Activity [16]: Dose-dependent effect; Activity [17]: Dose-dependent effect; Activity [18]: Active; Activity [19]: inactive; Activity [20]: Dose-dependent effect; Activity [25]: inactive; Activity [21]: inactive
28.8	–	–	–	–	–	–	O=C1Nc2ccccc2C(=O)N2CCN(C(=O)c3ccccc3)C[C@H]12	24.6	–	–
39.6	–	–	–	–	–	–	O=C1Nc2ccccc2C(=O)N2CCN(C(=O)c3ccc(-c4ccccc4)cc3)C[C@H]12	19.6	–	–
